Measurements taken from patent US7247617B2, “Sixteen-member macrolide antiinfective agents” (Kosan Biosciences Incorporated, priority 2004, dated 2007).

Columns and labels:
S. pneumoniae = assay: Biological activity against bacterial strains: S. pneumoniae; format: cell-based, Streptococcus pneumoniae; parameters: Biological Activity, S. pneumoniae ATCC6301 / Biological Activity, S. pneumoniae ATCC700671 / Biological Activity, S. pneumoniae ATCC700676* / Biological Activity, S. pneumoniae ATCC700677* / Biological Activity, S. pneumoniae ATCC700905* / Biological Activity, S. pneumoniae ATCC700906* / Biological Activity, S. pneumoniae ATCC49619: unit not given here; details: for Biological Activity, S. pneumoniae ATCC6301: strain ATCC6301; for Biological Activity, S. pneumoniae ATCC49619: strain ATCC49619; for Biological Activity, S. pneumoniae ATCC700671: strain ATCC700671; for Biological Activity, S. pneumoniae ATCC700676*: strain ATCC700676, macrolide resistant strain; for Biological Activity, S. pneumoniae ATCC700677*: strain ATCC700677, macrolide resistant strain; for Biological Activity, S. pneumoniae ATCC700905*: strain ATCC700905, macrolide resistant strain; for Biological Activity, S. pneumoniae ATCC700906*: strain ATCC700906, macrolide resistant strain
S. aureus = assay: Biological activity against bacterial strains: S. aureus; format: cell-based, Staphylococcus aureus; parameters: unit not given here; details: for Biological Activity, S. aureus ATCC6538p: strain ATCC6538p; for Biological Activity, S. aureus ATCC29213: strain ATCC29213
S. epidermidis = assay: Biological activity against bacterial strains: S. epidermidis; format: cell-based, Staphylococcus epidermidis; details: strain ATCC12228
E. faecalis = assay: Biological activity against bacterial strains: E. faecalis; format: cell-based, Enterococcus faecalis; details: strain ATCC51575
Haemophilus Influenzae = assay: H. influenzae Activity; format: cell-based; details: for potency against H. influenzae (in words): compared to compound A, OMT and Ketek

Structure (SMILES) | Biological Activity, S. pneumoniae ATCC6301 (S. pneumoniae) | Biological Activity, S. pneumoniae ATCC49619 (S. pneumoniae) | Biological Activity, S. pneumoniae ATCC700671 (S. pneumoniae) | Biological Activity, S. pneumoniae ATCC700676* (S. pneumoniae) | Biological Activity, S. pneumoniae ATCC700677* (S. pneumoniae) | Biological Activity, S. pneumoniae ATCC700905* (S. pneumoniae) | Biological Activity, S. pneumoniae ATCC700906* (S. pneumoniae) | Biological Activity, S. aureus ATCC6538p (S. aureus) | Biological Activity, S. aureus ATCC29213 (S. aureus) | Biological Activity, S. epidermidis ATCC12228 (S. epidermidis) | H. influenzae Activity, strain ATCC9006 (Haemophilus Influenzae) | H. influenzae Activity, strain ATCC49766 (Haemophilus Influenzae) | H. influenzae Activity, strain EH001 (Haemophilus Influenzae) | H. influenzae Activity, strain EH002 (Haemophilus Influenzae) | H. influenzae Activity, strain EH003 (Haemophilus Influenzae) | activity / potency against S. pneumoniae (in words) (S. pneumoniae) | potency against H. influenzae (in words) (Haemophilus Influenzae) | further results
CC[C@H]1OC(=O)C[C@@H](O)[C@H](C)[C@@H](OC2OC(C)C(O)C(N(C)C)C2O)[C@@H](CC=O)C[C@@H](C)C(=N/OCCOc2ccccc2)/C=C/C(C)=C/C1CO (some centres unmarked) [Compound IIa] | 0.20 | 0.20 | 0.39 | 0.20 | 3.12 | 0.39 | >12.5 | 0.78 | 1.56 | 1.56 | – | – | – | – | – | – | – | Biological Activity, S. aureus ATCC14154* (S. aureus; strain ATCC14154, macrolide resistant strain): 1.56; Biological Activity, S. aureus ATCC33591* (S. aureus; strain ATCC33591, macrolide resistant strain): >12.5; Biological Activity, S. aureus ATCCBAA-39* (S. aureus; strain ATCCBAA-39, macrolide resistant strain): >12.5; Biological Activity, S. aureus ATCCBAA-44* (S. aureus; strain ATCCBAA-44, macrolide resistant strain): >12.5; Biological Activity, E. faecalis ATCC51575 (E. faecalis): >12.5
CC[C@H]1OC(=O)[C@H](C)[C@@H](O[C@H]2C[C@@](C)(OC)[C@@H](O)[C@H](C)O2)[C@H](C)[C@@H](O[C@@H]2O[C@H](C)C[C@H](N(C)C)[C@H]2O)[C@](C)(O)C[C@@H](C)C(=O)[C@H](C)[C@@H](O)[C@]1(C)O [Ery A, erythromycin A, reference compound] | 0.025 | 0.049 | 0.049 | 6.25 | 6.25 | 3.12 | – | 0.098 | 0.20 | 0.20 | 1.56 | 6.25 | 3.12 | 6.25 | 3.12 | – | – | –
CCC1OC(=O)CC(O)C(C)C(OC2OC(C)C(O)C(N(C)C)C2O)C(CC=O)CC(C)C(=NOCCCOc2ccc3ncccc3c2)C=CC(C)=CC1CN(C)C (single isomer, unassigned) [Compound Z] | 0.025 | 0.049 | 0.049 | 0.025 | >12.5 | 0.025 | >12.5 | – | – | – | 1.56 | 3.12 | 3.12 | 3.12 | 1.56 | essentially remained unchanged | improved potency against H. influenzae, to a level similar to OMT and Ketek™ | –
CC[C@H]1OC(=O)[C@H](C)C(=O)[C@H](C)[C@@H](O[C@@H]2O[C@H](C)C[C@H](N(C)C)[C@H]2O)[C@](C)(OC)C[C@@H](C)C(=O)[C@H](C)[C@H]2N(CCCCn3cnc(-c4cccnc4)c3)C(=O)O[C@]12C [Ketek, telithromycin, reference compound] | – | – | – | – | – | – | – | – | – | – | 1.56 | 3.12 | 1.56 | 6.25 | 1.56 | – | – | –
CCC1OC(=O)CC(O)C(C)C(OC2OC(C)C(O)C(N(C)C)C2O)C(CC=O)CC(C)C(=NOCCCOc2ccc3ncccc3c2)C=CC(C)=CC1CN(C)C (single isomer, unassigned) [Compound Y] | 0.025 | 0.025 | 0.098 | 0.025 | >12.5 | 0.025 | >12.5 | – | – | – | 1.56 | 3.12 | 3.12 | 6.25 | 3.12 | essentially remained unchanged | improved potency against H. influenzae, to a level similar to OMT and Ketek™ | –
